System: Trypanosoma cruzi
Experiment: Antitrypanosomal activity against Trypanosoma cruzi Y epimastigotes at 25 uM
Assay type: functional
Details: read-out: GI

Row | Structure (SMILES) | inhibition of growth at 25 µM
1 | [O-][n+]1c2ccccc2[n+]([O-])c2cc(O)ccc21 | 0%

System: Trypanosoma cruzi
Experiment: Antitrypanosomal activity against Trypanosoma cruzi CL Brener epimastigotes at 25 uM
Assay type: functional
Details: read-out: GI

Row | Structure (SMILES) | inhibition of growth at 25 µM
2 | [O-][n+]1c2ccccc2[n+]([O-])c2cc(O)ccc21 | 14%

System: Trypanosoma cruzi
Experiment: Antitrypanosomal activity against Trypanosoma cruzi Tulahuen 2 epimastigotes at 25 uM
Assay type: functional
Details: read-out: GI

Row | Structure (SMILES) | inhibition of growth at 25 µM
3 | [O-][n+]1c2ccccc2[n+]([O-])c2cc(O)ccc21 | 0%
4 | O=[N+]([O-])c1ccc(C2=[N+]([O-])c3ccccc3N3CCCN=C23)cc1 | 9%
5 | O=[N+]([O-])c1ccccc1C1=[N+]([O-])c2ccccc2N2CCCN=C12 | 12%
6 | COc1ccc(C2=[N+]([O-])c3ccccc3N3CCC[N+](C)=C23)cc1 | 9%
7 | C[N+]1=C2C(c3ccc([N+](=O)[O-])cc3)=[N+]([O-])c3ccccc3N2CCC1 | 20%
8 | c1ccc(C2=Nc3ccccc3N3CCCN=C23)cc1 | 29%
9 | C[N+]1=C2C(c3ccccc3)=[N+]([O-])c3ccccc3N2CCC1 | 20%
10 | [O-][N+]1=C(c2ccccc2)C2=NCCCN2c2ccccc21 | 36%
11 | COc1ccc(C2=[N+]([O-])c3ccccc3N3CCCN=C23)cc1 | 36%
12 | [O-][N+]1=C(c2ccc(Cl)cc2)C2=NCCCN2c2ccccc21 | 14%
13 | [O-][N+]1=C(Cc2ccccc2)C2=NCCCN2c2ccccc21 | 13%
14 | CC1=[N+]([O-])c2ccccc2N2CCCN=C12 | 22%
15 | COc1ccc(C2=[N+]([O-])c3ccccc3N3CC(C)(C)CN=C23)cc1 | 13%
16 | [O-][N+]1=C(c2ccccc2Cl)C2=NCCCN2c2ccccc21 | 14%
